Source: patent publication US20100221304A1, “Bionanocomposite Materials and Methods For Producing and Using the Same” (The Regents of the University of Colorado, a body corporate, priority 2009, published 2010)

Key:
[1] = tested on: smooth muscle cell (SMC); assay: SMC contraction and invasion in genipin-crosslinked collagen-chitosan-elastin (CCE) gel constructs; type: cell-based
Text: The vascular media, a layer of the blood vessel wall containing smooth muscle cell (SMC), is often the target functional tissue in the construction of biomimetic vascular grafts. It has a major contribution to mechanical properties and biological functions of vessels including contraction and healing. The present inventors have studied the effects of crosslinking and biomolecule conditions in the development of mechanically strong and stable, biologically functional constructs for vascular media equivalents. To this end, genipin was used to crosslink collagen-chitosan-elastin (CCE) constructs, and the effects of genipin concentration on the mechanical properties and SMC activity of CCE gel constructs were examined.
To enhance biological activities of cells on the genipin-treated CCE constructs, soluble molecule factors were incorporated with structural constructs and their effects on SMC activities were evaluated. These conditions include heparin, platelet-derived […] growth factor (PDGF), high-concentrated fetal bovine serum (h-FBS), mixture of heparin and PDGF and mixture of h-FBS and PDGF. […] The ingrowth of SMC in the vascular media equivalent also promoted wound healing process of the construct scaffold by showing the closure of the puncture hole (FIG. 14).

[2] = tested on: SMC; assay: SMC migration, in-growth and contraction in collagen-chitosan scaffolds; type: cell-based
Text: In addition, collagen-chitosan scaffolds have been developed as a structural support for the formation of a vascular media equivalent. In particular, the effects of cross-linking and PDGF-BB (with or without heparin or serum) on biomechanical properties, SMC migration, SMC contraction, and wound healing have been evaluated (FIG. 12). […] For example, it enhanced the strength and modulus while inhibited SMC in-growth and contraction. With a low cross-linking condition, the molecule effects of PDGF-BB, a SMC attractant, were studied with or without serum or heparin.

Molecule	SMC contraction or invasion in the gels ([1]; genipin at a concentration of 5 mM or above)	SMC contraction and invasion in the CCE gels ([1]; genipin crosslinking)	SMC in-growth and contraction ([2]; collagen-chitosan scaffolds cross-linked using genipin)	PDGF-induced SMC invasion into the crosslinked constructs [1]	PDGF-induced cell migration and contraction ([2]; low cross-linking condition, PDGF-BB with or without serum or heparin)
COC(=O)C1=CO[C@@H](O)[C@@H]2C(CO)=CC[C@H]12 [genipin]	No SMC contraction or invasion was observed	significantly inhibited	inhibited	–	–
heparin	–	–	–	inhibitory effects	inhibited
